{
  "source": "patent US8716237B2",
  "about": "“Methods for the treatment or prevention of hemorrhagic conditions” (University of Rochester, priority 2007, dated 2014)",
  "key": {"PAI-1 [1]": {"tested_on": "PAI-1", "assay": "PAI-1 mRNA expression in mouse embryonic fibroblasts (Q-PCR)", "format": "cell-based", "conditions": "Cyld−/− MEF cells; pretreatment with SB203580", "protocol": "Cells were cultured on 12-well plates and transfected with various expression plasmids, as described in Examples 1-15 and the Brief Description of the Drawings. All transient transfections were carried out in triplicate using TransIT-LT1 reagent (Minis) following the manufacturer's instructions. […] Transfected cells were pretreated with or without chemical inhibitors including SB203580 (1 μM) for 2 hours. S.p. or pneumolysin was then added to the transfected cells 42 hours after transfection. After 5 hours, the cells were harvested for either RNA extraction and real-time quantitative PCR analysis as described in the Examples or luciferase assay. Luciferase activity was normalized with respect to β-galactosidase activity using the Galacton-Plus substrate system (Tropix) following manufacturer's instruction. In all co-transfections with expression plasmids of signaling molecules, an empty vector was used as a control. […]\n(§1) Total RNA was isolated with TRIzol reagent (Invitrogen) by following the manufacturer's instructions. Real-Time Quantitative RT-PCR analysis of PAI-1 and CYLD were performed as described in Jono et al., “NF-κB Is Essential for Induction of CYLD, the Negative Regulator of NF-κB: Evidence for a Novel Inducible Autoregulatory Feedback Pathway,” J. Biol. Chem. 279:36171-4 (2004), which is hereby incorporated by reference in its entirety. […]"}, "PAI-1 [2]": {"tested_on": "PAI-1", "assay": "PAI-1 induction in BEAS-2B, SAEC and NHBE cells", "format": "cell-based, human", "conditions": "SB203580", "description": "J. Physiol. Lung Cell. Mol. Physiol. 281:L616-23 (2001), and Hasegawa et al., “Decreased Intracellular Iron Availability Suppresses Epithelial Cell Surface Plasmin Generation. Transcriptional and Post-transcriptional Effects on u-PA and PAI-1 Expression,” Am. J. Respir. Cell. Mol. Biol. 21:275-82 (1999), each of which is hereby incorporated by reference in its entirety. Wild type and Cyld-deficient mouse embryonic fibroblasts were obtained from E13 embryos and maintained in DMEM supplemented with 10% FBS (Invitrogen). […]\nCells were cultured on 12-well plates and transfected with various expression plasmids, as described in Examples 1-15 and the Brief Description of the Drawings. […] After 5 hours, the cells were harvested for either RNA extraction and real-time quantitative PCR analysis as described in the Examples or luciferase assay. […]\nas §1"}},
  "data": [
    {"molecule": "C[S+]([O-])c1ccc(-c2nc(-c3ccncc3)c(-c3ccc(F)cc3)[nH]2)cc1", "note": "(stereo not drawn) [SB203580]", "values": [
      {"measurement": "PAI-1 expression in cells treated with PLY", "setting": "PAI-1 [1]", "result": "reduced PAI-1 expression"},
      {"measurement": "PAI-1 expression in cells treated with S. pneumoniae", "setting": "PAI-1 [1]", "result": "reduced PAI-1 expression"},
      {"measurement": "PAI-1 induction by S. pneumoniae WT and PLY", "setting": "PAI-1 [2]", "result": "inhibited PAI-1 induction"}
    ]}
  ]
}
